Key:
[1] = Octanol/water partition coefficient, logP of compound at pH 7.4; assay type: physicochemical
[2] = Cmax in Sprague-Dawley rat at 10 mg/kg, po measured up to 24 hrs by LC-MS/MS analysis; assay type: ADME, organism-based; set-up: route oral, dose 10 mg/kg, time <=24; conditions: in vivo
[3] = MRT in Sprague-Dawley rat at 10 mg/kg, po measured up to 24 hrs by LC-MS/MS analysis; assay type: ADME, organism-based; conditions: in vivo
[4] = AUC (0 to infinitive) in Sprague-Dawley rat at 10 mg/kg, po measured up to 24 hrs by LC-MS/MS analysis; assay type: ADME, organism-based; set-up: route oral, dose 10 mg/kg, time <=24; conditions: in vivo
[5] = Cmax in Sprague-Dawley rat at 1 mg/kg, ip measured up to 24 hrs by LC-MS/MS analysis; assay type: ADME, organism-based; set-up: route intraperitoneal, dose 1 mg/kg, time <=24; conditions: in vivo
[6] = Tmax in Sprague-Dawley rat at 10 mg/kg, po measured up to 24 hrs by LC-MS/MS analysis; assay type: ADME, organism-based; conditions: in vivo
[7] = AUC (0 to infinitive) in Sprague-Dawley rat at 1 mg/kg, ip measured up to 24 hrs by LC-MS/MS analysis; assay type: ADME, organism-based; set-up: route intraperitoneal, dose 1 mg/kg, time <=24; conditions: in vivo
[8] = Oral bioavailability in Sprague-Dawley rat at 10 mg/kg measured up to 24 hrs by LC-MS/MS analysis; assay type: ADME, organism-based; conditions: in vivo
[9] = MRT in Sprague-Dawley rat at 1 mg/kg, ip measured up to 24 hrs by LC-MS/MS analysis; assay type: ADME, organism-based; conditions: in vivo
[10] = Acute toxicity in ICR mouse assessed as mortality rate at 1500 mg/kg, po administered as single dose measured after 1 week relative to control; assay type: organism-based; conditions: in vivo, time 1 weeks, read-out: Activity

logD [1] | SMILES | also measured
1.46 | CN1CCN(c2ccc(Nc3ncc(Cl)c(Nc4cccc(C(F)(F)F)c4)n3)cc2)CC1 | –
2.65 | FC(F)(F)Oc1cccc(Nc2nc(Nc3ccccc3)ncc2Cl)c1 | –
0.44 | NC1CCN(c2ccc(Nc3ncc(Cl)c(Nc4cccc(C(F)(F)F)c4)n3)nc2)CC1 | –
2.03 | FC(F)(F)c1cccc(Nc2nc(Nc3ccc(-c4ccsc4)cn3)ncc2Cl)c1 | –
1.4 | FC(F)(F)c1cccc(Nc2nc(Nc3ccccn3)ncc2Cl)c1 | –
1.26 | FC(F)(F)c1cccc(Nc2nc(Nc3cccnc3)ncc2Cl)c1 | –
1.87 | CN1CCN(c2ccc(Nc3ncc(Cl)c(Nc4cccc(C(F)(F)F)c4)n3)nc2)CC1 | Cmax [2]: 83.5 ng/mL; MRT [3]: 2.68 h; AUC(0-inf) [4]: 158 ng·h/mL; Cmax [5]: 458 ng/mL; Tmax [6]: 2 h; AUC [7]: 249.2 µg·h/L; bioavailability [8]: 16.7%; MRT [9]: 1.22 h
2.18 | CCN1CCN(c2ccc(Nc3ncc(Cl)c(Nc4cccc(C(F)(F)F)c4)n3)nc2)CC1 | –

The next lines start with the compound.

SMILES | logD [1] | also measured
FC(F)(F)c1cccc(Nc2nc(Nc3cccnn3)ncc2Cl)c1 | 2.26 | –
FC(F)(F)c1cccc(Nc2nc(Nc3ccccc3)ncc2Cl)c1 | 2.46 | –
CN1CCN(c2ccc(Nc3ncc(Cl)c(Nc4cccc(C(F)(F)F)c4)n3)cn2)CC1 | 1.61 | –
CN1CCN(c2ccc(Nc3ncc(Cl)c(Nc4cccc(C(F)(F)F)c4)n3)nn2)CC1 | 1.26 | –
FC(F)(F)c1cccc(Nc2nc(Nc3cncnc3)ncc2Cl)c1 | 2.01 | –
CN1CCN(c2ncc(Nc3ncc(Cl)c(Nc4cccc(C(F)(F)F)c4)n3)cn2)CC1 | 1.89 | –
CN(C)C1CCN(c2ccc(Nc3ncc(Cl)c(Nc4cccc(C(F)(F)F)c4)n3)nc2)CC1 | 2.01 | mortality at 168 h [10]: 70%
FC(F)(F)c1cccc(Nc2nc(Nc3ccc(N4CCNCC4)cn3)ncc2Cl)c1 | 1.25 | –
